What all share (assay): inhibition of tumour cell growth, NCI panel, 48 h
Test [1] relates to IGROV1 ovarian.
Test [2] relates to K-562 leukemia.
The subject of test [3] is COLO 205 colon.
For test [4], the system named is HCT-15 colon.
Test [5] has as its system ACHN renal.
Test [6] relates to KM12 colon.
Test [7] deals with RPMI-8226 leukemia.
Test [8] deals with HOP-92 NSCLC.
Test [9] has as its system SNB-19 CNS.
The subject of test [10] is MOLT-4 leukemia.
The subject of test [11] is CAKI-1 renal.
Test [12] has as its system MALME-3M melanoma.
Test [13] has as its system SK-MEL-28 melanoma.
In test [14] the test system is LOX IMVI melanoma.
The test system of test [15] is M14 melanoma.
Test [16] concerns A549 NSCLC.
Test [17] deals with U251 CNS.
The subject of test [18] is UACC-62 melanoma.
Test [19] relates to TK-10 renal.
The subject of test [20] is HCC-2998 colon.

Consider two compounds from PubChem BioAssay (NCI).

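Grown in 96-well plates, cells were treated for 48 hours with each compound at five concentrations. Insufficient inhibition: endpoint recorded as highest concentration tested. At the TGI there is no net growth.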 Bounds are passed on as bounds.

For `O=Nn1c2ccccc2c2cc([N+](=O)[O-])ccc21`, the TGI is 30.2 µM in test [1]; > 100 µM in [2]; > 100 µM in test [3]; > 100 µM in [4]; 29.3 µM in test [5]; 42 µM in test [6]. Moreover, the TGI in [7] was 38.8 µM; in test [8], 29.8 µM; in [9] it was 58.1 µM; in [10], 70.9 µM; in test [11], 31.6 µM; in [12] it was 38.5 µM. The TGI is 39.3 µM in test [13]; 30.9 µM in test [14]; 47.9 µM in [15]; 73.2 µM in test [16]; 33.1 µM in test [17]; 32.9 µM in [18]. The figures for the TGI in test [19] and in test [20] were 32.1 µM and > 100 µM, respectively.
Consider `CC(C)OP(=O)(OC(C)C)C1=NN(c2ccc([N+](=O)[O-])cc2)C(P(=O)(OC(C)C)OC(C)C)=NN1c1ccc([N+](=O)[O-])cc1`, for which the TGI in test [1], in [2], in test [3], in [4], in test [5] and in [6] was > 100 µM in each case. The TGI in test [7], in test [8], in test [9], in test [10], in [11] and in [12] was > 100 µM in each case. In addition, the TGI in [13], in [14], in test [15], in test [16], in test [17] and in test [18] was > 100 µM each time. The TGI in test [19] and in test [20] was > 100 µM in each case.
